Where “and” joins values, the source holds several entries; their conditions need not be identical. Identical values can stand only once. Counter-ions that a name gives are not always drawn.
Experiments:
soluble hCD73 = target: T1, soluble hCD73 (Homo sapiens, UniProt P21589); experiment: Inhibition of soluble hCD73; type: biochemical; conditions: for fold increase in potency (decrease in Ki) relative to compound 9: versus N^4-benzyloxy compound 9; for fold more potent than 22: versus compound 22
T1 sequence (P21589 27-549 limits assumed): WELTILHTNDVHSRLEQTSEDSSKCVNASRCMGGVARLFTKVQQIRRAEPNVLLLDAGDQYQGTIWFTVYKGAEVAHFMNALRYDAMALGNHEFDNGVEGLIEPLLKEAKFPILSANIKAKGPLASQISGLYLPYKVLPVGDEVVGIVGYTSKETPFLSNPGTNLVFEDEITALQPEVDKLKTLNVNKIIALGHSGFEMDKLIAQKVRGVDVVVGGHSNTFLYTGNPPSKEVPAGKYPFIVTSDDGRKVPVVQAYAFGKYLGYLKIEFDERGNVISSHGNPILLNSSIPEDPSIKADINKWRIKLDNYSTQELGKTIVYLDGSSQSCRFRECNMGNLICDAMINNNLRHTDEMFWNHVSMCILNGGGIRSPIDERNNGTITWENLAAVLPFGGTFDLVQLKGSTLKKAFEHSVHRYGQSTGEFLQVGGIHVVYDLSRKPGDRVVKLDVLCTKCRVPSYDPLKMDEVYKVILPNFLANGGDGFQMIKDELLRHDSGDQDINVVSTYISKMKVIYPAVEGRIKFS

[1] = 30 (6a); ref 9 (6b); cited from earlier work
[2] = target: T2, tonsillar CD73 (human palatine tonsil cryosections) (Homo sapiens, UniProt P21589); experiment: In situ ecto-5′-nucleotidase; type: biochemical; conditions: 50–250 nM inhibitor; 100 μM AMP; tonsillar germinal centers
T2 sequence (P21589 27-574): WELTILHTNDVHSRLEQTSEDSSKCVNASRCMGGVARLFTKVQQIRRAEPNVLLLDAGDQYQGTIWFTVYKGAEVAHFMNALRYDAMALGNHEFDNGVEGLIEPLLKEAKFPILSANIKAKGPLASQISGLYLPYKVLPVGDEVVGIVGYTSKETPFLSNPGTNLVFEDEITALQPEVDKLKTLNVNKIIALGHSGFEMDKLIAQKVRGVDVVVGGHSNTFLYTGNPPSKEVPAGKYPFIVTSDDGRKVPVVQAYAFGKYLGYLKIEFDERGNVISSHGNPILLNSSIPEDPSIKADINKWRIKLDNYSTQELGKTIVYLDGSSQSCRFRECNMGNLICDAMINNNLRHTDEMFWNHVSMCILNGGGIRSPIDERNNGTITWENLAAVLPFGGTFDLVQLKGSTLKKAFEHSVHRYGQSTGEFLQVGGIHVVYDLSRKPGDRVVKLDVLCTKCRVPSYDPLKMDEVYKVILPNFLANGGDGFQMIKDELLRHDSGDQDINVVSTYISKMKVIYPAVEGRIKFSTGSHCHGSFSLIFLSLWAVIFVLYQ

rat soluble CD73 = conditions: read-out: Ki ± SEM; cited from earlier work
σ1 receptor = σ1 receptor (Homo sapiens, UniProt Q99720); experiment: Off-target binding, Psychoactive Drug Screening Program
σ1 receptor, sequence (Q99720 whole entry, species assumed): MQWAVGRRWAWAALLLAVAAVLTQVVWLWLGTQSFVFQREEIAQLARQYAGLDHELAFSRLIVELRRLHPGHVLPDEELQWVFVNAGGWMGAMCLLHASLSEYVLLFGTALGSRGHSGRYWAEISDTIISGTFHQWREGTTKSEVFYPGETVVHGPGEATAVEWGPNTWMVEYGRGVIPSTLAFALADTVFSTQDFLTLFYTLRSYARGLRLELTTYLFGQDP

CCN(CC)CC.CCN(CC)CC.Cn1c(=O)n([C@@H]2O[C@H](COP(=O)(O)CP(=O)(O)O)[C@@H](O)[C@H]2O)cc/c1=N/OCc1cccc(Cl)c1 [Compound 11, N^4-(3-Chlorobenzyloxy)-3-methylcytidine-5′-α,β-methylenediphosphonate Triethylammonium Salt]
fold increase in potency (decrease in Ki) relative to compound 9 (soluble hCD73; soluble hCD73): 6–7 fold

CCN(CC)CC.CCN(CC)CC.Cn1c(=O)n([C@@H]2O[C@H](COP(=O)(O)CP(=O)(O)O)[C@@H](O)[C@H]2O)cc/c1=N/OCc1ccc(C(N)=O)cc1 [Compound 23, N^4-[4-(Carbamoyl)benzyloxy]-3-methylcytidine-5′-α,β-methylenediphosphate Triethylammonium Salt]
fold weaker than methyl ester 21 (soluble hCD73; soluble hCD73, versus compound 21): 2 fold

COC[C@](CO)(OC[C@H]1O[C@@H](n2ncc3c(NC4CCCC4)nc(Cl)nc32)[C@H](O)[C@@H]1O)P(=O)(O)O [Compound 6b, OP-5244]
oral bioavailability [1]: display oral bioavailability

CCN(CC)CC.CCN(CC)CC.Cn1c(=O)n([C@@H]2O[C@H](COP(=O)(O)CP(=O)(O)O)[C@@H](O)[C@H]2O)cc/c1=N/OCc1ccc(C(=O)NCCC(=O)O)cc1 [Compound 27, N^4-{4-[(2-Carboxyethyl)carbamoyl]benzyloxy}-3-methylcytidine-5′-α,β-methylenediphosphonate Triethylammonium Salt]
fold more potent than 22 (soluble hCD73; soluble hCD73): 5 fold

CCN(CC)CC.CCN(CC)CC.Cn1c(=O)n([C@@H]2O[C@H](COP(=O)(O)CP(=O)(O)O)[C@@H](O)[C@H]2O)cc/c1=N/OCc1ccccc1Cl [Compound 10, N^4-(2-Chlorobenzyloxy)-3-methylcytidine-5′-α,β-methylenediphosphonate Triethylammonium Salt]
fold increase in potency (decrease in Ki) relative to compound 9 (soluble hCD73; soluble hCD73): 6–7 fold

CCN(CC)CC.CCN(CC)CC.Cn1c(=O)n([C@H]2[C@H](O)[C@H](O)[C@]3(COP(=O)(O)CP(=O)(O)O)C[C@H]23)cc/c1=N/OCc1ccc(Cl)cc1 [Compound 29, [({[(2R,3S,4R,5S)-4-(4-{[(4-Chlorobenzyl)oxy]imino}-3-methyl-2-oxo-3,4-dihydropyrimidin-1(2H)-yl)-2,3-dihydroxy-1λ^5-bicyclo[3.1.0]hexan-1-yl]methoxy}(hydroxy)phosphoryl)methyl]phosphonic Acid Triethylammonium Salt]
fold weaker inhibitor than ribose analogue 16 (soluble hCD73; soluble hCD73, versus compound 16): 88 fold and ~ 90 fold

CCN(CC)CC.CCN(CC)CC.O=c1ccn([C@H]2[C@H](O)[C@H](O)[C@]3(COP(=O)(O)CP(=O)(O)O)C[C@H]23)c(=O)[nH]1 [Compound 28, {[({(2R,3S,4R,5S)-4-[2,4-Dioxo-3,4-dihydropyrimidin-1(2H)-yl]-2,3-dihydroxy-1λ^5-bicyclo[3.1.0]hexan-1-yl}methoxy)(hydroxy)phosphoryl]methyl}phosphonic Acid Triethylammonium Salt]
inhibition at 50 µM (soluble hCD73): 28% | % inhibition (soluble hCD73; soluble hCD73, between 0.03 nM and 50 μM): < 50%

CCN(CC)CC.CCN(CC)CC.Cn1c(=O)n([C@@H]2O[C@H](COP(=O)(O)CP(=O)(O)O)[C@@H](O)[C@H]2O)cc/c1=N/OCc1ccc(S(F)(F)(F)(F)F)cc1 [Compound 20, N^4-[4-(Pentafluorosulfanyl)benzyloxy]-3-methylcytidine-5′-α,β-methylenediphosphonate Triethylammonium Salt]
effect on catalytic (AMPase) activity of tonsillar CD73 in situ [2]: decreased the catalytic activities

N^4-benzyloxy-3-methylcytidine-5′-α,β-methylene-diphosphonate [Compound 9]
Ki (rat soluble CD73): 3.67 nM

Cn1c(=O)n([C@@H]2O[C@H](COP(=O)(O)CP(=O)(O)O)[C@@H](O)[C@H]2O)cc/c1=N/OCc1ccc(Cl)cc1 [Compound 16, N^4-(4-Chlorobenzyloxy)-3-methylcytidine-5′-α,β-methylenediphosphonate Triethylammonium Salt]
Ki (σ1 receptor): 2610 ± 640 nM

CCN(CC)CC.CCN(CC)CC.Cn1c(=O)n([C@@H]2O[C@H](COP(=O)(O)CP(=O)(O)O)[C@@H](O)[C@H]2O)cc/c1=N/OCc1ccc(I)cc1 [Compound 18, N^4-(4-Iodobenzyloxy)-3-methylcytidine-5′-α,β-methylenediphosphonate Triethylammonium Salt]
effect on catalytic (AMPase) activity of tonsillar CD73 in situ [2]: decreased the catalytic activities | fold increase in potency (decrease in Ki) relative to compound 9 (soluble hCD73; soluble hCD73): ~ 20 fold and 24 fold

C[C@H](Nc1cc(Cl)nc2c1cnn2[C@@H]1O[C@H](COP(=O)(O)CP(=O)(O)O)[C@@H](O)[C@H]1O)c1ccccc1F [Compound 6a, Quemliclustat]
oral bioavailability [1]: display oral bioavailability

CCN(CC)CC.CCN(CC)CC.CCOC(=O)CCNC(=O)c1ccc(CO/N=c2/ccn([C@@H]3O[C@H](COP(=O)(O)CP(=O)(O)O)[C@@H](O)[C@H]3O)c(=O)n2C)cc1 [Compound 26, N^4-{4-[(3-Ethoxy-3-oxopropyl)carbamoyl]benzyloxy}-3-methylcytidine-5′-α,β-methylenediphosphonate Triethylammonium Salt]
fold more potent than 22 (soluble hCD73; soluble hCD73): 5 fold
